How the values were obtained:
Format in all cases: in vivo
corn (Zea mays) = test: Test C preemergence; conditions: Zea mays, pre-emergence, 336 h, preemergence, scale 0 to 100
In short: (§1)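 Seeds sown in a loam soil and sand blend were treated preemergence; plants in peat-moss/vermiculite medium were sprayed at the 1- to 4-leaf stage (2-18 cm). Chemicals were in a non-phytotoxic surfactant-containing solvent. After 13 to 15 days in a greenhouse, injury was visually rated against controls on a 0-100 scale.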

[1] = tested on: Italian ryegrass (Lolium multiflorum); test: Test C preemergence; conditions: Lolium multiflorum, pre-emergence, 336 h, preemergence, scale 0 to 100, read-out: Plant response rating, Ryegrass, Italian
In short: as §1

soybean (Glycine max) = test: Test C preemergence; conditions: Glycine max, pre-emergence, preemergence, scale 0 to 100, read-out: Plant response rating, Soybean
In short: as §1

[2] = tested on: blackgrass (Alopecurus myosuroides); test: Test C preemergence; conditions: Alopecurus myosuroides, pre-emergence, 336 h, preemergence, scale 0 to 100, read-out: Plant response rating, Blackgrass
In short: as §1

[3] = tested on: barnyardgrass (Echinochloa crus-galli); test: Test C preemergence; conditions: Echinochloa crus-galli, pre-emergence, preemergence, scale 0 to 100, read-out: Plant response rating, Barnyardgrass
In short: as §1

[4] = tested on: pigweed (Amaranthus retroflexus); test: Test C preemergence; conditions: Amaranthus retroflexus, pre-emergence, 336 h, preemergence, scale 0 to 100, read-out: Plant response rating, Pigweed
In short: as §1

[5] = tested on: large (Lg) crabgrass (Digitaria sanguinalis); test: Test C preemergence; conditions: Digitaria sanguinalis, pre-emergence, 336 h, preemergence, scale 0 to 100, read-out: Plant response rating, Crabgrass, Large
In short: as §1

[6] = tested on: giant foxtail (Setaria faberii); test: Test C preemergence; conditions: Setaria faberi, pre-emergence, 336 h, preemergence, scale 0 to 100, read-out: Plant response rating, Foxtail, Giant
In short: as §1

[7] = tested on: winter wheat (Triticum aestivum); test: Test C preemergence; conditions: Triticum aestivum, pre-emergence, 336 h, preemergence, scale 0 to 100, read-out: Plant response rating, Wheat
In short: as §1

[8] = tested on: ragweed (common ragweed, Ambrosia elatior); test: Test C preemergence; conditions: Ambrosia artemisiifolia, pre-emergence, 336 h, preemergence, scale 0 to 100, read-out: Plant response rating, Ragweed
In short: as §1

[9] = tested on: velvetleaf (Abutilon theophrasti); test: Test C preemergence; conditions: Abutilon theophrasti, pre-emergence, preemergence, scale 0 to 100, read-out: Plant response rating, Velvetleaf
In short: as §1

[10] = tested on: morningglory (Ipomoea coccinea); test: Test C preemergence; conditions: Ipomoea, pre-emergence, 336 h, preemergence, scale 0 to 100, read-out: Plant response rating, Morningglory
In short: as §1

[11] = tested on: oilseed rape (Brassica napus); test: Test C preemergence; conditions: Brassica napus, pre-emergence, preemergence, scale 0 to 100, read-out: Plant response rating, Oilseed Rape
In short: as §1

[12] = tested on: waterhemp (common waterhemp, Amaranthus rudis); test: Test C preemergence; conditions: Amaranthus tuberculatus, pre-emergence, preemergence, scale 0 to 100, read-out: Plant response rating, Waterhemp
In short: as §1

[13] = tested on: johnsongrass (Sorghum halepense); test: Test C preemergence; conditions: Sorghum halepense, pre-emergence, 336 h, preemergence, scale 0 to 100, read-out: Plant response rating, Johnsongrass
In short: as §1

wild oat (Avena fatua) = test: Test C postemergence; conditions: Avena fatua, post-emergence, Postemergence, scale 0 to 100, read-out: Plant response rating, Oat, Wild
In short: as §1

[14] = tested on: chickweed (common chickweed, Stellaria media); test: Test C postemergence; conditions: Stellaria media, post-emergence, Postemergence, scale 0 to 100, read-out: Plant response rating, Chickweed
In short: as §1

[15] = tested on: yellow nutsedge (Cyperus esculentus); test: Test C postemergence; conditions: Cyperus, post-emergence, 336 h, Postemergence, scale 0 to 100, read-out: Plant response rating, Nutsedge, Yellow
In short: as §1

[16] = tested on: pigweed (Amaranthus retroflexus); test: Test C postemergence; conditions: Amaranthus retroflexus, post-emergence, 336 h, Postemergence, scale 0 to 100, read-out: Plant response rating, Pigweed
In short: as §1

kochia (Kochia scoparia) = test: Test C postemergence; conditions: Bassia scoparia, post-emergence, Postemergence, scale 0 to 100, read-out: Plant response rating, Kochia
In short: as §1

[17] = tested on: waterhemp (common waterhemp, Amaranthus rudis); test: Test C postemergence; conditions: Amaranthus tuberculatus, post-emergence, Postemergence, scale 0 to 100, read-out: Plant response rating, Waterhemp
In short: as §1

[18] = tested on: galium (catchweed bedstraw, Galium aparine); test: Test C postemergence; conditions: Galium, post-emergence, 336 h, Postemergence, scale 0 to 100, read-out: Plant response rating, Galium
In short: as §1

Structure (SMILES): N#Cc1cccc(Oc2ncc(Cl)cn2)c1Oc1ncc(Cl)cn1 [Compound 3, 2,3-bis[(5-chloro-2-pyrimidinyl)oxy]benzonitrile]
- Corn plant response rating (crop injury, 0 = no effect, 100 = complete kill) at 31 g/ha (corn (Zea mays); 31 g ai/ha): 20%
- Corn plant response rating (crop injury, 0 = no effect, 100 = complete kill) at 62 g/ha (corn (Zea mays); 62 g ai/ha): 70%
- Corn plant response rating (crop injury, 0 = no effect, 100 = complete kill) at 125 g/ha (corn (Zea mays); 125 g ai/ha): 85%
- pest or weed control at 31 g/ha ([1]; 31 g ai/ha): 5%
- pest or weed control at 62 g/ha ([1]; 62 g ai/ha): 35%
- pest or weed control at 125 g/ha ([1]; 125 g ai/ha): 90%
- pest or weed control at 250 g/ha ([1]; 250 g ai/ha): 90%
- plant injury at 31 g/ha (soybean (Glycine max); 31 g ai/ha): 40%
- plant injury at 62 g/ha (soybean (Glycine max); 62 g ai/ha): 40%
- plant injury at 125 g/ha (soybean (Glycine max); 125 g ai/ha): 85%
- plant injury at 250 g/ha (soybean (Glycine max); 250 g ai/ha): 95%
- pest or weed control at 31 g/ha ([2]; 31 g ai/ha): 70%
- pest or weed control at 62 g/ha ([2]; 62 g ai/ha): 90%
- pest or weed control at 125 g/ha ([2]; 125 g ai/ha): 90%
- pest or weed control at 31 g/ha ([3]; 31 g ai/ha): 80%
- pest or weed control at 62 g/ha ([3]; 62 g ai/ha): 100%
- pest or weed control at 125 g/ha ([3]; 125 g ai/ha): 100%
- pest or weed control at 250 g/ha ([3]; 250 g ai/ha): 100%
- pest or weed control at 31 g/ha ([4]; 31 g ai/ha): 100%
- pest or weed control at 62 g/ha ([4]; 62 g ai/ha): 100%
- pest or weed control at 125 g/ha ([4]; 125 g ai/ha): 100%
- pest or weed control at 31 g/ha ([5]; 31 g ai/ha): 100%
- pest or weed control at 62 g/ha ([5]; 62 g ai/ha): 100%
- pest or weed control at 125 g/ha ([5]; 125 g ai/ha): 100%
- pest or weed control at 31 g/ha ([6]; 31 g ai/ha): 100%
- pest or weed control at 62 g/ha ([6]; 62 g ai/ha): 100%
- pest or weed control at 125 g/ha ([6]; 125 g ai/ha): 100%
- plant injury at 31 g/ha ([7]; 31 g ai/ha): 5%
- plant injury at 62 g/ha ([7]; 62 g ai/ha): 45%
- plant injury at 125 g/ha ([7]; 125 g ai/ha): 90%
- plant injury at 250 g/ha ([7]; 250 g ai/ha): 90%
- pest or weed control at 31 g/ha ([8]; 31 g ai/ha): 90%
- pest or weed control at 125 g/ha ([8]; 125 g ai/ha): 90%
- pest or weed control at 250 g/ha ([8]; 250 g ai/ha): 100%
- pest or weed control at 31 g/ha ([9]; 31 g ai/ha): 80%
- pest or weed control at 62 g/ha ([9]; 62 g ai/ha): 100%
- pest or weed control at 125 g/ha ([9]; 125 g ai/ha): 100%
- pest or weed control at 250 g/ha ([9]; 250 g ai/ha): 100%
- pest or weed control at 31 g/ha ([10]; 31 g ai/ha): 45%
- pest or weed control at 62 g/ha ([10]; 62 g ai/ha): 98%
- pest or weed control at 125 g/ha ([10]; 125 g ai/ha): 100%
- plant injury at 31 g/ha ([11]; 31 g ai/ha): 90%
- plant injury at 62 g/ha ([11]; 62 g ai/ha): 95%
- plant injury at 125 g/ha ([11]; 125 g ai/ha): 95%
- plant injury at 250 g/ha ([11]; 250 g ai/ha): 95%
- pest or weed control at 31 g/ha ([12]; 31 g ai/ha): 100%
- pest or weed control at 62 g/ha ([12]; 62 g ai/ha): 100%
- pest or weed control at 125 g/ha ([12]; 125 g ai/ha): 100%
- pest or weed control at 250 g/ha ([12]; 250 g ai/ha): 100%
- pest or weed control at 31 g/ha ([13]; 31 g ai/ha): 45%
- pest or weed control at 62 g/ha ([13]; 62 g ai/ha): 75%
- pest or weed control at 125 g/ha ([13]; 125 g ai/ha): 100%
- pest or weed control at 31 g/ha (wild oat (Avena fatua); 31 g ai/ha): 15%
- pest or weed control at 62 g/ha (wild oat (Avena fatua); 62 g ai/ha): 30%
- pest or weed control at 125 g/ha (wild oat (Avena fatua); 125 g ai/ha): 35%
- pest or weed control at 250 g/ha (wild oat (Avena fatua); 250 g ai/ha): 35%
- pest or weed control at 31 g/ha ([14]; 31 g ai/ha): 50%
- pest or weed control at 62 g/ha ([14]; 62 g ai/ha): 85%
- pest or weed control at 125 g/ha ([14]; 125 g ai/ha): 90%
- pest or weed control at 250 g/ha ([14]; 250 g ai/ha): 95%
- pest or weed control at 31 g/ha ([15]; 31 g ai/ha): 0%
- pest or weed control at 62 g/ha ([15]; 62 g ai/ha): 0%
- pest or weed control at 125 g/ha ([15]; 125 g ai/ha): 5%
- pest or weed control at 250 g/ha ([15]; 250 g ai/ha): 35%
- pest or weed control at 31 g/ha ([16]; 31 g ai/ha): 75%
- pest or weed control at 62 g/ha ([16]; 62 g ai/ha): 80%
- pest or weed control at 125 g/ha ([16]; 125 g ai/ha): 90%
- pest or weed control at 250 g/ha ([16]; 250 g ai/ha): 100%
- pest or weed control at 31 g/ha (kochia (Kochia scoparia); 31 g ai/ha): 90%
- pest or weed control at 62 g/ha (kochia (Kochia scoparia); 62 g ai/ha): 90%
- pest or weed control at 125 g/ha (kochia (Kochia scoparia); 125 g ai/ha): 95%
- pest or weed control at 250 g/ha (kochia (Kochia scoparia); 250 g ai/ha): 95%
- pest or weed control at 31 g/ha ([17]; 31 g ai/ha): 75%
- pest or weed control at 62 g/ha ([17]; 62 g ai/ha): 75%
- pest or weed control at 125 g/ha ([17]; 125 g ai/ha): 85%
- pest or weed control at 250 g/ha ([17]; 250 g ai/ha): 98%
- pest or weed control at 31 g/ha ([18]; 31 g ai/ha): 50%
- pest or weed control at 62 g/ha ([18]; 62 g ai/ha): 70%
- pest or weed control at 125 g/ha ([18]; 125 g ai/ha): 95%
- pest or weed control at 250 g/ha ([18]; 250 g ai/ha): 95%

— patent publication US20170190671A1, “BIS(ARYL)CATECHOL DERIVATIVES AS HERBICIDES” (E I DU PONT DE NEMOURS AND COMPANY, priority 2014, published 2017)
